Converted amounts (≈) assume the structure as drawn.
Assays:
Assay in all cases: MIC, broth microdilution
E. coli GC 6465 = details: Escherichia coli, GC6465, E. coli GC 6465
E. coli GC 3226 = details: Escherichia coli, GC3226, E. coli GC 3226
S. typhimurium GC 2172 = details: Salmonella enterica, TYPHIMURIUM, S. typhimurium GC 2172
E. coli GC 1073 = details: Escherichia coli, GC1073, E. coli GC 1073
E. coli GC 2271 = details: Escherichia coli, GC2271, E. coli GC 2271
S. aureus GC 1079 = details: Staphylococcus aureus, GC1079, S. aureus GC 1079
Experimental: Antimicrobial susceptibility testing. The in vitro activities of the antibiotics are determined by the broth microdilution method as recommended by the National Committee for Clinical Laboratory Standards (NCCLS) (1). Mueller-Hinton II broth (MHBII)(BBL Cockeysville, Md.) is the medium employed in the testing procedures. Microtiter plates containing serial dilutions of each antimicrobial agent are inoculated with each organism to yield the appropriate density (10^5 CFU/ml) in a 100 μl final volume. The plates are incubated for 18-22 hours at 35° C. in ambient air.
Representative compounds were first incubated in mouse serum for an hour prior to the in vitro testing against a panel of selected gram-positive and gram-negative bacteria strains. All compounds were also pre-incubated in water for an hour prior to testing as control. Representative compounds of Formula I were incubated in human serum prior to MIC determination.

S. aureus GC 6466 = details: Staphylococcus aureus, GC6466, S. aureus GC 6466
S. aureus GC 6467 = details: Staphylococcus aureus, GC6467, S. aureus GC 6467
E. coli GC 2234 = details: Escherichia coli, GC2234, E. coli GC 2234
E. coli GC 2203 = details: Escherichia coli, GC2203, E. coli GC 2203
E. faecium GC 4556 = details: Enterococcus faecium, GC4556, E. faecium GC 4556
S. aureus GC 6469 = details: Staphylococcus aureus, GC6469, S. aureus GC 6469
E. coli GC 4560 = details: Escherichia coli, GC4560, E. coli GC 4560
E. coli GC 2270 = details: Escherichia coli, GC2270, E. coli GC 2270
S. pyogenes GC 4563 = details: Streptococcus pyogenes, GC4563, S. pyogenes GC 4563
S. agalactiae GC 4564 = details: Streptococcus agalactiae, GC4564, S. agalactiae GC 4564
E. coli GC 4559 = details: Escherichia coli, GC4559, E. coli GC 4559
E. coli GC 2233 = details: Escherichia coli, GC2233, E. coli GC 2233
S. aureus GC 6335 = details: Staphylococcus aureus, GC6335, S. aureus GC 6335
E. coli GC 2235 = details: Escherichia coli, GC2235, E. coli GC 2235

Structure (SMILES)	MIC (E. coli GC 6465; Mouse Serum pre-incubation) [µg/mL]	MIC (E. coli GC 6465; Water pre-incubation) [µg/mL]	MIC (E. coli GC 3226; Mouse Serum pre-incubation) [µg/mL]	MIC (E. coli GC 3226; Water pre-incubation) [µg/mL]	MIC (S. typhimurium GC 2172; Mouse Serum pre-incubation) [µg/mL]	MIC (S. typhimurium GC 2172; Water pre-incubation) [µg/mL]	MIC (E. coli GC 1073; Mouse Serum pre-incubation) [µg/mL]	MIC (E. coli GC 1073; Water pre-incubation) [µg/mL]	MIC (E. coli GC 2271; Mouse Serum pre-incubation) [µg/mL]	MIC (E. coli GC 2271; Water pre-incubation) [µg/mL]	MIC (S. aureus GC 1079; Mouse Serum pre-incubation) [µg/mL]	MIC (S. aureus GC 1079; Water pre-incubation) [µg/mL]	MIC (S. aureus GC 6466; Mouse Serum pre-incubation) [µg/mL]	MIC (S. aureus GC 6466; Water pre-incubation) [µg/mL]	MIC (S. aureus GC 6467; Mouse Serum pre-incubation) [µg/mL]	MIC (S. aureus GC 6467; Water pre-incubation) [µg/mL]	MIC (E. coli GC 2234; Mouse Serum pre-incubation) [µg/mL]	MIC (E. coli GC 2234; Water pre-incubation) [µg/mL]	MIC (E. coli GC 2203; Mouse Serum pre-incubation) [µg/mL]	MIC (E. coli GC 2203; Water pre-incubation) [µg/mL]	further results
CCCCN(CC(=O)Nc1cc(N(C)C)c2c(c1O)C(=O)C1=C(O)[C@]3(O)C(=O)C(C(N)=O)=C(O)[C@@H](N(C)C)[C@@H]3C[C@@H]1C2)C(=O)OCOC(=O)C(C)(C)C [Example 13, ({[(2-{[(5aR,6aS,7S,10aS)-9-(aminocarbonyl)-4,7-bis(dimethylamino)-1,8,10a,11-tetrahydroxy-10,12-dioxo-5,5a,6,6a,7,10,10a,12-octahydrotetracen-2-yl]amino}-2-oxoethyl)(butyl)amino]carbonyl}oxy)methyl pivalate]	8 (≈ 10.8 µM)	> 64	2 (≈ 2.69 µM)	16 (≈ 21.5 µM)	8 (≈ 10.8 µM)	64 (≈ 86 µM)	2 (≈ 2.69 µM)	16 (≈ 21.5 µM)	2 (≈ 2.69 µM)	8 (≈ 10.8 µM)	4 (≈ 5.38 µM)	4 (≈ 5.38 µM)	1 (≈ 1.34 µM)	2 (≈ 2.69 µM)	4 (≈ 5.38 µM)	8 (≈ 10.8 µM)	1 (≈ 1.34 µM)	8 (≈ 10.8 µM)	2 (≈ 2.69 µM)	8 (≈ 10.8 µM)	MIC (E. faecium GC 4556; Mouse Serum pre-incubation): 2 µg/mL (≈ 2.69 µM); MIC (E. faecium GC 4556; Water pre-incubation): 8 µg/mL (≈ 10.8 µM); MIC (S. aureus GC 6469; Mouse Serum pre-incubation): 4 µg/mL (≈ 5.38 µM); MIC (S. aureus GC 6469; Water pre-incubation): 8 µg/mL (≈ 10.8 µM); MIC (E. coli GC 4560; Mouse Serum pre-incubation): 1 µg/mL (≈ 1.34 µM); MIC (E. coli GC 4560; Water pre-incubation): 4 µg/mL (≈ 5.38 µM); MIC (E. coli GC 2270; Mouse Serum pre-incubation): 1 µg/mL (≈ 1.34 µM); MIC (E. coli GC 2270; Water pre-incubation): 8 µg/mL (≈ 10.8 µM); MIC (S. pyogenes GC 4563; Mouse Serum pre-incubation): 0.5 µg/mL (≈ 0.672 µM); MIC (S. pyogenes GC 4563; Water pre-incubation): 1 µg/mL (≈ 1.34 µM); MIC (S. agalactiae GC 4564; Mouse Serum pre-incubation): 1 µg/mL (≈ 1.34 µM); MIC (S. agalactiae GC 4564; Water pre-incubation): 2 µg/mL (≈ 2.69 µM); MIC (E. coli GC 4559; Mouse Serum pre-incubation): 4 µg/mL (≈ 5.38 µM); MIC (E. coli GC 4559; Water pre-incubation): 16 µg/mL (≈ 21.5 µM); MIC (E. coli GC 2233; Mouse Serum pre-incubation): 2 µg/mL (≈ 2.69 µM); MIC (E. coli GC 2233; Water pre-incubation): 8 µg/mL (≈ 10.8 µM); MIC (S. aureus GC 6335; Mouse Serum pre-incubation): 2 µg/mL (≈ 2.69 µM); MIC (S. aureus GC 6335; Water pre-incubation): 4 µg/mL (≈ 5.38 µM); MIC (E. coli GC 2235; Mouse Serum pre-incubation): 2 µg/mL (≈ 2.69 µM); MIC (E. coli GC 2235; Water pre-incubation): 8 µg/mL (≈ 10.8 µM)
CCCN(CC(=O)Nc1cc(N(C)C)c2c(c1O)C(=O)C1=C(O)[C@]3(O)C(=O)C(C(N)=O)=C(O)[C@@H](N(C)C)[C@@H]3C[C@@H]1C2)C(=O)OCc1ccccc1 [Example 14, benzyl 2-{[(5aR,6aS,7S,10aS)-9-(aminocarbonyl)-4,7-bis(dimethylamino)-1,8,10a,11-tetrahydroxy-10,12-dioxo-5,5a,6,6a,7,10,10a,12-octahydrotetracen-2-yl]amino}-2-oxoethyl(propyl)carbamate]	> 64	> 64	> 64	> 64	> 64	> 64	> 64	> 64	> 64	> 64	1 (≈ 1.42 µM)	2 (≈ 2.83 µM)	2 (≈ 2.83 µM)	8 (≈ 11.3 µM)	2 (≈ 2.83 µM)	4 (≈ 5.67 µM)	> 64	> 64	32 (≈ 45.3 µM)	64 (≈ 90.7 µM)	MIC (E. faecium GC 4556; Mouse Serum pre-incubation): 4 µg/mL (≈ 5.67 µM); MIC (E. faecium GC 4556; Water pre-incubation): 8 µg/mL (≈ 11.3 µM); MIC (S. aureus GC 6469; Mouse Serum pre-incubation): 2 µg/mL (≈ 2.83 µM); MIC (S. aureus GC 6469; Water pre-incubation): 4 µg/mL (≈ 5.67 µM); MIC (E. coli GC 4560; Mouse Serum pre-incubation): 4 µg/mL (≈ 5.67 µM); MIC (E. coli GC 4560; Water pre-incubation): 4 µg/mL (≈ 5.67 µM); MIC (E. coli GC 2270; Mouse Serum pre-incubation): > 64 µg/mL; MIC (E. coli GC 2270; Water pre-incubation): > 64 µg/mL; MIC (S. pyogenes GC 4563; Mouse Serum pre-incubation): 2 µg/mL (≈ 2.83 µM); MIC (S. pyogenes GC 4563; Water pre-incubation): 4 µg/mL (≈ 5.67 µM); MIC (S. agalactiae GC 4564; Mouse Serum pre-incubation): 16 µg/mL (≈ 22.7 µM); MIC (S. agalactiae GC 4564; Water pre-incubation): 16 µg/mL (≈ 22.7 µM); MIC (E. coli GC 4559; Mouse Serum pre-incubation): > 64 µg/mL; MIC (E. coli GC 4559; Water pre-incubation): > 64 µg/mL; MIC (E. coli GC 2233; Mouse Serum pre-incubation): > 64 µg/mL; MIC (E. coli GC 2233; Water pre-incubation): > 64 µg/mL; MIC (S. aureus GC 6335; Mouse Serum pre-incubation): 1 µg/mL (≈ 1.42 µM); MIC (S. aureus GC 6335; Water pre-incubation): 4 µg/mL (≈ 5.67 µM); MIC (E. coli GC 2235; Mouse Serum pre-incubation): 32 µg/mL (≈ 45.3 µM); MIC (E. coli GC 2235; Water pre-incubation): 64 µg/mL (≈ 90.7 µM)
CCCN(CC(=O)Nc1cc(N(C)C)c2c(c1O)C(=O)C1=C(O)[C@]3(O)C(=O)C(C(N)=O)=C(O)[C@@H](N(C)C)[C@@H]3C[C@@H]1C2)C(=O)OCC [Example 15, ethyl 2-{[(5aR,6aS,7S,10aS)-9-(aminocarbonyl)-4,7-bis(dimethylamino)-1,8,10a,11-tetrahydroxy-10,12-dioxo-5,5a,6,6a,7,10,10a,12-octahydrotetracen-2-yl]amino}-2-oxoethyl(propyl)carbamate]	> 64	> 64	> 64	> 64	> 64	> 64	> 64	> 64	64 (≈ 99.4 µM)	64 (≈ 99.4 µM)	2 (≈ 3.11 µM)	4 (≈ 6.21 µM)	2 (≈ 3.11 µM)	4 (≈ 6.21 µM)	16 (≈ 24.9 µM)	16 (≈ 24.9 µM)	> 64	> 64	32 (≈ 49.7 µM)	64 (≈ 99.4 µM)	MIC (E. faecium GC 4556; Mouse Serum pre-incubation): 8 µg/mL (≈ 12.4 µM); MIC (E. faecium GC 4556; Water pre-incubation): 8 µg/mL (≈ 12.4 µM); MIC (S. aureus GC 6469; Mouse Serum pre-incubation): 4 µg/mL (≈ 6.21 µM); MIC (S. aureus GC 6469; Water pre-incubation): 8 µg/mL (≈ 12.4 µM); MIC (E. coli GC 4560; Mouse Serum pre-incubation): 1 µg/mL (≈ 1.55 µM); MIC (E. coli GC 4560; Water pre-incubation): 1 µg/mL (≈ 1.55 µM); MIC (E. coli GC 2270; Mouse Serum pre-incubation): 64 µg/mL (≈ 99.4 µM); MIC (E. coli GC 2270; Water pre-incubation): 64 µg/mL (≈ 99.4 µM); MIC (S. pyogenes GC 4563; Mouse Serum pre-incubation): 2 µg/mL (≈ 3.11 µM); MIC (S. pyogenes GC 4563; Water pre-incubation): 2 µg/mL (≈ 3.11 µM); MIC (S. agalactiae GC 4564; Mouse Serum pre-incubation): 8 µg/mL (≈ 12.4 µM); MIC (S. agalactiae GC 4564; Water pre-incubation): 8 µg/mL (≈ 12.4 µM); MIC (E. coli GC 4559; Mouse Serum pre-incubation): > 64 µg/mL; MIC (E. coli GC 4559; Water pre-incubation): > 64 µg/mL; MIC (E. coli GC 2233; Mouse Serum pre-incubation): > 64 µg/mL; MIC (E. coli GC 2233; Water pre-incubation): > 64 µg/mL; MIC (S. aureus GC 6335; Mouse Serum pre-incubation): 4 µg/mL (≈ 6.21 µM); MIC (S. aureus GC 6335; Water pre-incubation): 4 µg/mL (≈ 6.21 µM); MIC (E. coli GC 2235; Mouse Serum pre-incubation): 32 µg/mL (≈ 49.7 µM); MIC (E. coli GC 2235; Water pre-incubation): 32 µg/mL (≈ 49.7 µM)

From patent publication US20070049564A1 (Wyeth, priority 2005, published 2007)
